PubChem BioAssay (NCI)
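In this assay, cells in 96-well plates receive the compound at five concentrations for 48 hours. Endpoints are linearly interpolated between the surrounding concentrations. Here, GI50 denotes the concentration required for 50% inhibition of growth. TGI: total growth inhibition.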

What was measured:
Assay in all cases: NCI tumour cell line growth inhibition, 48 h
CAKI-1 renal = tested on: CAKI-1 renal
SK-MEL-2 melanoma = tested on: SK-MEL-2 melanoma
HL-60(TB) leukemia = tested on: HL-60(TB) leukemia
NCI-H460 lung = tested on: NCI-H460 lung
RPMI-8226 leukemia = tested on: RPMI-8226 leukemia
EKVX NSCLC = tested on: EKVX NSCLC
HS 578T breast = tested on: HS 578T breast
DU-145 prostate = tested on: DU-145 prostate
HOP-62 NSCLC = tested on: HOP-62 NSCLC
HT29 colon = tested on: HT29 colon
MDA-MB-231 breast = tested on: MDA-MB-231 breast
SF-539 CNS = tested on: SF-539 CNS
786-0 renal = tested on: 786-0 renal
MALME-3M melanoma = tested on: MALME-3M melanoma
HCT-116 colon = tested on: HCT-116 colon
ACHN renal = tested on: ACHN renal
HOP-92 NSCLC = tested on: HOP-92 NSCLC
SR leukemia = tested on: SR leukemia
MCF7 breast = tested on: MCF7 breast
SF-268 CNS = tested on: SF-268 CNS
IGROV1 ovarian = tested on: IGROV1 ovarian
KM12 colon = tested on: KM12 colon
UACC-257 melanoma = tested on: UACC-257 melanoma
BT-549 breast = tested on: BT-549 breast
SW-620 colon = tested on: SW-620 colon
SNB-19 CNS = tested on: SNB-19 CNS
K-562 leukemia = tested on: K-562 leukemia
SK-MEL-28 melanoma = tested on: SK-MEL-28 melanoma
UO-31 renal = tested on: UO-31 renal
MOLT-4 leukemia = tested on: MOLT-4 leukemia
LOX IMVI melanoma = tested on: LOX IMVI melanoma
NCI-H226 lung = tested on: NCI-H226 lung
MDA-MB-435 = tested on: MDA-MB-435
T-47D breast = tested on: T-47D breast
SK-OV-3 ovarian = tested on: SK-OV-3 ovarian
A498 renal = tested on: A498 renal
HCC-2998 colon = tested on: HCC-2998 colon
TK-10 renal = tested on: TK-10 renal
SN12C renal = tested on: SN12C renal
CCRF-CEM leukemia = tested on: CCRF-CEM leukemia
SK-MEL-5 melanoma = tested on: SK-MEL-5 melanoma
HCT-15 colon = tested on: HCT-15 colon
COLO 205 colon = tested on: COLO 205 colon
OVCAR-5 ovarian = tested on: OVCAR-5 ovarian
OVCAR-8 ovarian = tested on: OVCAR-8 ovarian
PC-3 prostate = tested on: PC-3 prostate
M14 melanoma = tested on: M14 melanoma
RXF 393 renal = tested on: RXF 393 renal
NCI/ADR-RES ovarian = tested on: NCI/ADR-RES ovarian
SNB-75 CNS = tested on: SNB-75 CNS
SF-295 CNS = tested on: SF-295 CNS
NCI-H522 lung = tested on: NCI-H522 lung
OVCAR-4 ovarian = tested on: OVCAR-4 ovarian
U251 CNS = tested on: U251 CNS
A549 NSCLC = tested on: A549 NSCLC
UACC-62 melanoma = tested on: UACC-62 melanoma
NCI-H23 lung = tested on: NCI-H23 lung

`CN1CCN(Cc2ccc(NC(=O)c3cncc(C#Cc4cnc5ccc(OCC6(C)COC6)nn45)c3)cc2C(F)(F)F)CC1` showed a GI50 (CAKI-1 renal) of 0.0878 µM, a TGI (CAKI-1 renal) of 0.254 µM and a GI50 (SK-MEL-2 melanoma) of 0.102 µM. For the same molecule, the TGI (SK-MEL-2 melanoma) was 0.218 µM, the GI50 (HL-60(TB) leukemia) was 0.19 µM and the TGI (HL-60(TB) leukemia) was 0.604 µM. For the same molecule, the GI50 (NCI-H460 lung) was 0.194 µM, the TGI (NCI-H460 lung) was 0.669 µM and the GI50 (RPMI-8226 leukemia) was 0.223 µM. For the same molecule, the TGI (RPMI-8226 leukemia) was 1.44 µM, the GI50 (EKVX NSCLC) was 0.152 µM and the TGI (EKVX NSCLC) was 0.641 µM. For the same molecule, the GI50 (HS 578T breast) was 0.0804 µM, the TGI (HS 578T breast) was 0.321 µM and the GI50 (DU-145 prostate) was 0.164 µM. The TGI (DU-145 prostate) was 0.527 µM, the GI50 (HOP-62 NSCLC) was 0.156 µM and the TGI (HOP-62 NSCLC) was 0.518 µM. For the same molecule, the GI50 (HT29 colon) was 0.151 µM, the TGI (HT29 colon) was 0.639 µM and the GI50 (MDA-MB-231 breast) was 0.0731 µM. It also gave a TGI (MDA-MB-231 breast) of 0.243 µM, a GI50 (SF-539 CNS) of 0.0911 µM and a TGI (SF-539 CNS) of 0.573 µM. For the same molecule, the GI50 (786-0 renal) was 0.215 µM, the TGI (786-0 renal) was 0.72 µM and the GI50 (MALME-3M melanoma) was 0.089 µM. For the same molecule, the TGI (MALME-3M melanoma) was 0.303 µM, the GI50 (HCT-116 colon) was 0.125 µM and the TGI (HCT-116 colon) was 0.476 µM. It also gave a GI50 (ACHN renal) of 0.108 µM, a TGI (ACHN renal) of 0.465 µM and a GI50 (HOP-92 NSCLC) of 0.0595 µM. It also gave a TGI (HOP-92 NSCLC) of 0.217 µM, a GI50 (SR leukemia) of 0.14 µM and a TGI (SR leukemia) of 1.65 µM. For the same molecule, the GI50 (MCF7 breast) was 0.086 µM, the TGI (MCF7 breast) was 0.525 µM and the GI50 (SF-268 CNS) was 0.117 µM. The TGI (SF-268 CNS) was 0.333 µM, the GI50 (IGROV1 ovarian) was 0.105 µM and the TGI (IGROV1 ovarian) was 0.437 µM. For the same molecule, the GI50 (KM12 colon) was 0.005 µM, the TGI (KM12 colon) was 0.352 µM and the GI50 (UACC-257 melanoma) was 0.228 µM. For the same molecule, the TGI (UACC-257 melanoma) was 0.829 µM, the GI50 (BT-549 breast) was 0.32 µM and the TGI (BT-549 breast) was 0.94 µM. It also gave a GI50 (SW-620 colon) of 0.121 µM, a TGI (SW-620 colon) of 0.317 µM and a GI50 (SNB-19 CNS) of 0.2 µM. The TGI (SNB-19 CNS) was 0.668 µM, the GI50 (K-562 leukemia) was 0.005 µM and the TGI (K-562 leukemia) was 50 µM. For the same molecule, the GI50 (SK-MEL-28 melanoma) was 0.167 µM, the TGI (SK-MEL-28 melanoma) was 0.612 µM and the GI50 (UO-31 renal) was 0.13 µM. For the same molecule, the TGI (UO-31 renal) was 0.436 µM, the GI50 (MOLT-4 leukemia) was 0.145 µM and the TGI (MOLT-4 leukemia) was 16.5 µM. The GI50 (LOX IMVI melanoma) was 0.107 µM, the TGI (LOX IMVI melanoma) was 0.322 µM and the GI50 (NCI-H226 lung) was 0.0985 µM. For the same molecule, the TGI (NCI-H226 lung) was 0.975 µM, the GI50 (MDA-MB-435) was 0.142 µM and the TGI (MDA-MB-435) was 0.535 µM. For the same molecule, the GI50 (T-47D breast) was 0.279 µM, the TGI (T-47D breast) was 1.15 µM and the GI50 (SK-OV-3 ovarian) was 0.233 µM. It also gave a TGI (SK-OV-3 ovarian) of 0.747 µM, a GI50 (A498 renal) of 0.142 µM and a TGI (A498 renal) of 0.407 µM. For the same molecule, the GI50 (HCC-2998 colon) was 0.199 µM, the TGI (HCC-2998 colon) was 0.656 µM and the GI50 (TK-10 renal) was 0.149 µM. It also gave a TGI (TK-10 renal) of 0.451 µM, a GI50 (SN12C renal) of 0.112 µM and a TGI (SN12C renal) of 0.489 µM. The GI50 (CCRF-CEM leukemia) was 0.165 µM, the TGI (CCRF-CEM leukemia) was 15.9 µM and the GI50 (SK-MEL-5 melanoma) was 0.642 µM. It also gave a TGI (SK-MEL-5 melanoma) of 1.28 µM, a GI50 (HCT-15 colon) of 0.123 µM and a TGI (HCT-15 colon) of 0.408 µM. The GI50 (COLO 205 colon) was 0.111 µM, the TGI (COLO 205 colon) was 0.236 µM and the GI50 (OVCAR-5 ovarian) was 0.172 µM. For the same molecule, the TGI (OVCAR-5 ovarian) was 0.609 µM, the GI50 (OVCAR-8 ovarian) was 0.157 µM and the TGI (OVCAR-8 ovarian) was 0.547 µM. For the same molecule, the GI50 (PC-3 prostate) was 0.218 µM, the TGI (PC-3 prostate) was 0.83 µM and the GI50 (M14 melanoma) was 0.0849 µM. For the same molecule, the TGI (M14 melanoma) was 0.218 µM, the GI50 (RXF 393 renal) was 0.113 µM and the TGI (RXF 393 renal) was 0.294 µM. For the same molecule, the GI50 (NCI/ADR-RES ovarian) was 0.163 µM, the TGI (NCI/ADR-RES ovarian) was 0.58 µM and the GI50 (SNB-75 CNS) was 0.128 µM. The TGI (SNB-75 CNS) was 0.357 µM, the GI50 (SF-295 CNS) was 0.44 µM and the TGI (SF-295 CNS) was 1.07 µM. It also gave a GI50 (NCI-H522 lung) of 0.0967 µM, a TGI (NCI-H522 lung) of 0.204 µM and a GI50 (OVCAR-4 ovarian) of 0.135 µM. The TGI (OVCAR-4 ovarian) was 0.757 µM, the GI50 (U251 CNS) was 0.193 µM and the TGI (U251 CNS) was 0.715 µM. For the same molecule, the GI50 (A549 NSCLC) was 0.145 µM, the TGI (A549 NSCLC) was 0.433 µM and the GI50 (UACC-62 melanoma) was 0.125 µM. For the same molecule, the TGI (UACC-62 melanoma) was 0.577 µM, the GI50 (NCI-H23 lung) was 0.134 µM and the TGI (NCI-H23 lung) was 0.462 µM.
